For one test, the target named is T1, human μOR (Homo sapiens, UniProt P35372).
T1 construct: host or cells: HEK293T (membrane preparation)
Kind of test: biochemical. It counts as binding.

Test [1] deals with T2, δOR (Homo sapiens, UniProt P41143). The test can be described thus: cell-based. It counts as cell-based. Also noted: Gαqi gift from The J. David Gladstone Institutes; host or cells: HEK293T. Particulars: for Emax: HEK-293T, read-out: Emax (agonist properties); for response in agonist mode: IP-One assay.
T2 sequence (P41143 whole entry): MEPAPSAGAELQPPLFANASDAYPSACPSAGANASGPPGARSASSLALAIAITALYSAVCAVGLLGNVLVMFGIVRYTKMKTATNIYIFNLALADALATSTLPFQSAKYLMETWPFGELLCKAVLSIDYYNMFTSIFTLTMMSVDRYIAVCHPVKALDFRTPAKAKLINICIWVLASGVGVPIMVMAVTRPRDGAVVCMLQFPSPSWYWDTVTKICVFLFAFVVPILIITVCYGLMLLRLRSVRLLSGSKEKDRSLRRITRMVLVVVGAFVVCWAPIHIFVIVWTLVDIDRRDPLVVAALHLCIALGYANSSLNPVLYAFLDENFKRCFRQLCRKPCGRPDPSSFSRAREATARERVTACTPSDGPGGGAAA
For test [2], the target named is T2, δOR. It counts as binding. Also noted: host or cells: CHO-K1. Particulars: labeled with 1 μM.
The next test addresses T3, human κOR (Homo sapiens, UniProt P41145).
T3 construct: host or cells: HEK293T (membrane preparation)
Kind of test: biochemical. It counts as binding.

For test [3], the target named is T2, δOR. Kind of test: cell-based. In kind it is cell-based. Also noted: host or cells: HEK293T stably expressing EA-β-arrestin-2. Particulars: for Emax: HEK-293T, read-out: Emax (agonist properties); for response in agonist mode: β-arrestin-2 recruitment.
Another test concerns the target T4, wild-type human δOR (Homo sapiens, UniProt P41143).
T4 construct: host or cells: CHO-K1
The test can be described thus: Single-molecule microscopy of CHO cells transfected with wild-type δOR. It counts as cell-based.

In test [4] the target is T5, μOR (SNAP-opioid receptor) (Homo sapiens, UniProt P35372).
T5 construct: host or cells: HEK293T
T5 sequence (P35372 whole entry): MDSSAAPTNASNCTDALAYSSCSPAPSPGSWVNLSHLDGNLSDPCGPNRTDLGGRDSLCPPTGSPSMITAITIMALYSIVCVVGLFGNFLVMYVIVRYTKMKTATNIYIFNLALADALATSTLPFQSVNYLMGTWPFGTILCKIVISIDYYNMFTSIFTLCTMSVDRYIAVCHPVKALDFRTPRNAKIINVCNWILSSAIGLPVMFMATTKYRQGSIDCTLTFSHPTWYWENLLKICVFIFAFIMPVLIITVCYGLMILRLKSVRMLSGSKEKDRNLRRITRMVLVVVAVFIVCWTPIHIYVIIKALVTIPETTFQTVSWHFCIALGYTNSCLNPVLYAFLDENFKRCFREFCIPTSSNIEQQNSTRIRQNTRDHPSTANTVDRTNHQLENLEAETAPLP
The test can be described thus: HTRF saturation binding of fluorescent ligand to SNAP-opioid receptors on HEK293T cells.

For test [5], the target named is T6, κOR (SNAP-opioid receptor) (Homo sapiens, UniProt P41145).
T6 construct: host or cells: HEK293T
T6 sequence (P41145 whole entry): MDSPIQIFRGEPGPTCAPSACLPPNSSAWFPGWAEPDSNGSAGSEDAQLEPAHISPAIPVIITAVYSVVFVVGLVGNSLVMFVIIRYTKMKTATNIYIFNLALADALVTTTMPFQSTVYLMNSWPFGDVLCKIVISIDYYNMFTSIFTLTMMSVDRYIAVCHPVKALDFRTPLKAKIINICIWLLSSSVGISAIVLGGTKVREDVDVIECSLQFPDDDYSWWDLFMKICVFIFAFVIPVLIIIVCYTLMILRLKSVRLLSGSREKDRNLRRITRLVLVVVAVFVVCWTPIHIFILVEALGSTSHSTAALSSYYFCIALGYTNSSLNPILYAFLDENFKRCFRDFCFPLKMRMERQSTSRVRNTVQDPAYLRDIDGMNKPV
The test is described as above.

Test [6] deals with T7, δOR (SNAP-opioid receptor) (Homo sapiens, UniProt P41143).
T7 construct: host or cells: HEK293T
T7 sequence (P41143 whole entry): as the sequence (P41143 whole entry) above
The test is described as above. Particulars: HTRF saturation curve, 1 h room temperature, nonspecific binding with naloxone 100 μM. (In TR-FRET formats the signal depends on donor and acceptor labels being close together.)

The mark [7] stands for this setting: HTRF saturation curve, value of high uncertainty, saturation not reached.
Setting [8] is: selectivity ratio of HTRF Kd values, high uncertainty.

Like-named read-outs stand apart in the source and are kept apart here.

T1 sequence (P35372 whole entry): as the sequence (P35372 whole entry) above
T3 sequence (P41145 whole entry): as the sequence (P41145 whole entry) above
T4 sequence (P41143 whole entry): as the sequence (P41143 whole entry) above

A word on the Ki: it is a measure of affinity in units of concentration, obtained from inhibition or displacement. A low value points to a stronger hold on the target. The IC50 is the concentration that inhibits the measured activity by half. Low values mean inhibition by little substance, high ones a need for much substance. One may read the Emax as the greatest response seen or fitted, relative to the assay's reference. Regarding `CN1/C(=C/C=C/C2=[N+](CCCCCC(=O)NCC(=O)NCC(=O)NCC(=O)NCC(=O)Nc3cccc4c5c([nH]c34)[C@@H]3Oc4c(O)ccc6c4[C@@]34CCN(CC3CC3)[C@H](C6)[C@]4(O)C5)c3ccc(S(=O)(=O)[O-])cc3C2(C)C)C(C)(C)c2cc(S(=O)(=O)O)ccc21` [6-Cy3, 1-(1-(((4bS,8R,8aS,14bR)-7-(cyclopropylmethyl)-1,8a-dihydroxy-5,6,7,8,8a,9,14,14b-octahydro-4,8-methanobenzofuro[2,3-a]pyrido[4,3-b]carbazol-13-yl)amino)-1,4,7,10,13-pentaoxo-3,6,9,12-tetraazaoctadecan-18-yl)-3,3-dimethyl-2-((E)-3-((E)-1,3,3-trimethyl-5-sulfoindolin-2-ylidene)prop-1-en-1-yl)-3H-indol-1-ium-5-sulfonate], at human μOR, the Ki was 370 nM and the μ/δ is recorded as 220. Further, at δOR [1], half-maximal inhibition (IC50) required 38 nM, the maximal response (Emax) was less than 10% and the “response in agonist mode” value is reported as “did not elicit a response”. In addition, the wash resistance on δOR [2] (after 15 min of medium wash out) came to 69 ± 1%. At human κOR, this molecule yielded a Ki of 330 nM and a κ/δ of 190. Also, on δOR [3], the IC50 stood at 47 nM, the maximum response (Emax) is less than 5% and the “response in agonist mode” value is “did not elicit a response”. In addition, the “time after labeling at which labeled δOR molecules could still be observed diffusing on the plasma membrane” value on wild-type human δOR fell in the range of 2 to 3 h.

Broadly, the Kd is the concentration at which binding is half-saturated. In the case of `CN1/C(=C/C=C/C=C/C2=[N+](CCCCCC(=O)NCC(=O)NCC(=O)NCC(=O)NCC(=O)Nc3cccc4c5c([nH]c34)[C@@H]3Oc4c(O)ccc6c4[C@@]34CCN(CC3CC3)[C@H](C6)[C@]4(O)C5)c3ccc(S(=O)(=O)[O-])cc3C2(C)C)C(C)(C)c2cc(S(=O)(=O)O)ccc21` [6-Cy5, 1-(1-(((4bS,8R,8aS,14bR)-7-(cyclopropylmethyl)-1,8a-dihydroxy-5,6,7,8,8a,9,14,14b-octahydro-4,8-methanobenzofuro[2,3-a]pyrido[4,3-b]carbazol-13-yl)amino)-1,4,7,10,13-pentaoxo-3,6,9,12-tetraazaoctadecan-18-yl)-3,3-dimethyl-2-((1E,3E)-5-((E)-1,3,3-trimethyl-5-sulfoindolin-2-ylidene)penta-1,3-dien-1-yl)-3H-indol-1-ium-5-sulfonate], the Ki was 100 nM at human μOR and 78 nM at human κOR. Moreover, the results for the μ/δ (at human μOR; in [4] (setting [8])) were 83 and 120, respectively. Further, the IC50 against δOR [1] was found to be 54 nM; against δOR [3], 33 nM. Besides, the Emax at δOR [1] and on δOR [3] was less than 5% in each case. Moreover, the “response in agonist mode” value at δOR [1] and on δOR [3] was “did not elicit a response” each time. In addition, on δOR [2] (after 20 min of medium wash out), the wash resistance amounted to 93 ± 1%. Also, the Kd in [4] (setting [7]) is 215 ± 262 nM; in [5] (setting [7]) it was 226 ± 131 nM; in test [6] it was 1.8 ± 0.8 nM. Moreover, the κ/δ on human κOR was determined as 65; in test [5] (setting [8]), 126.

The record behind these values is PMC11386433 (Journal of Medicinal Chemistry, 2024).
